Measurements reported in patent US8530507B2, “Use of levo-ornidazole in the preparation of anti-anaerobic bacteria infection drugs” (priority 2005, dated 2013).
In brackets after ≈: the same amount, converted by molar mass.

Assays:
Peptostreptococcus = experiment: In vitro MIC determination, clinical anaerobic strains; type: cell-based; conditions: 35 clinical strains, GAM broth, 72 hours anaerobic incubation at 35° C.
Description: (§1) Experimental strains: isolated from clinical specimens, and species identification were conducted.
(§2) Bacilli preparation: 4˜5 bacteria colonies with same pattern selected from anaerobic GAM plate were inoculated in GAM broth with inoculating loop. The bacteria was incubated at 35° C. under anaerobic condition until a slight turbidity was attained, and adjusted by means of sterilized saline (deoxygenated) so as to attain a turbidity equivalent to the No. 0.5 McFarland turbidity tube, then diluted with GAM broth (at 1:200) for later use.
(§3) MIC (Minimum Inhibitory Concentration) determination: the testing drugs and control drugs were diluted with GAM broth to different concentrations in the test tubes, followed by addition of equal volume of diluted Bacilli (at 1:200), MIC values were read 72 hours after anaerobic incubation at 35° C.

Bacteroides = experiment: as above; type: cell-based; conditions: 40 clinical strains, GAM broth, 72 hours anaerobic incubation at 35° C.
Description: as §1, §2, §3

Fusobacterium nucleatum = experiment: as above; type: cell-based; conditions: 11 clinical strains, GAM broth, 72 hours anaerobic incubation at 35° C.
Description: as §1, §2, §3

Veillonella = experiment: as above; type: cell-based; conditions: 23 clinical strains, GAM broth, 72 hours anaerobic incubation at 35° C.
Description: as §1, §2, §3

Clostridium = experiment: as above; type: cell-based; conditions: 6 clinical strains, GAM broth, 72 hours anaerobic incubation at 35° C.
Description: as §1, §2, §3

mice [1] = experiment: Effect on the coordination of balancing in mice; type: in vivo; conditions: intravenous injection
Description: Experiments were conducted in 9 administration groups, L-, D- and racemic ornidazole were administered to them at doses of 40, 80 and 160 mg/kg. Positive control group received chlorpromazine at a dose of 3 mg/kg.

[2] = test system: peptostreptococcus (including Escherichia coli); experiment: Abdominal infection model in mice, ED50; type: in vivo, Kunming white mice; conditions: death observed 7 days
Description: (§4) Kunming white mice, body weight of 20±2 g, half males and half females. 10 mice in each dose group with half females and half males. Abdominal infection models were prepared with the entire animal (mice) and treatments were conducted with the testing drugs. The therapeutical efficacy was observed and expressed as ED50 (half effective dose). Drugs were administered twice by oral gavage (administered immediately after infection for one and 6 hours after infection for the other one). The death status of animals was observed consecutively for seven days after infection and being treated.

[3] = test system: bacteroides (including Escherichia coli) infection; experiment: Abdominal infection model in mice, ED50; type: in vivo, Kunming white mice; conditions: death observed 7 days
Description: as §4

Kunming mice = experiment: Acute toxicology test, LD50 in mice (Bliss method); type: in vivo; conditions: for LD50: observed 14 days; for Number of dead animals: 10 animals
Description: Kunming mice, half males and half females, with body weights of 18˜22 g, were administered the testing drug solution by injection 8 hours after fasting. The death status of animals was consecutively observed for 14 days after administration.

[4] = In vivo pharmacokinetics in Beagle dogs
Description: The clinical dose of ornidazole is 500 mg for human. By calculating, based on body surface area, the pharmacokinetic experimental dose in Beagle dogs was 13 mg/kg in vivo. Six adult beagle dogs (half males and half females, body weight of 9˜11.5 kg) were randomly divided into three groups. According to crossover design, intravenous injection of L-, D-, and racemic ornidazole were administered in turn to each dog every other week (with one week washout period in between). 2 ml of blood was collected from the vein located at the forelimb of the dogs before drug administration and 0.083, 0.5, 1.0, 2.0, 4.0, 6.0, 8.0, 12.0, 16.0, 24.0 hours after drug administration, which was then placed in the heparinized tube, followed by centrifugation to obtain the plasma. Plasma concentration of drug was determined by HPLC. Pharmacokinetics parameters were estimated using the non-compartmental models. The corresponding pharmacokinetics parameters were obtained by BAPP2.0 using the data of plasma concentration of blood with time obtained above.

mice [5] = experiment: Effect on the hypnotic effect induced by sodium thiopental in mice; conditions: 40 mg/kg sodium thiopental i.p. 30 minutes later
Description: The same volume of 0.9% sodium chloride injection containing propylene glycol was administered in the vehicle control group. 30 minute after drug administration, 40 mg/kg of sodium thiopental was administered to mice by intraperitoneal injection. The time for the loss of righting reflex and the time for the recovery were recorded. The injection volume was 0.2 ml/10 g, the administration rate was 0.2 ml/10 sec.

[6] = oral gavage twice (immediately and 6 hours after infection)
[7] = beagle dogs, individual intravenous dose 13 mg/kg, plasma

In the case of `Cc1ncc([N+](=O)[O-])n1C[C@H](O)CCl` [L-ornidazole, 1-(3-chloro-2-S-(−)-hydroxypropyl)-2-methyl-5-nitroimidazole], the MIC50 (Peptostreptococcus) was 4.0 µg/mL (≈ 18.2 µM), the MIC90 (Peptostreptococcus) was 8.0 µg/mL (≈ 36.4 µM) and the “MIC Range” value (Peptostreptococcus) was 2.0~32.0 mg/L. The MIC50 (Bacteroides) was 4.0 µg/mL (≈ 18.2 µM), the MIC90 (Bacteroides) was 8.0 µg/mL (≈ 36.4 µM) and the “MIC Range” value (Bacteroides) was 20~16.0 mg/L. The MIC50 (Fusobacterium nucleatum) was 2.0 µg/mL (≈ 9.11 µM), the MIC90 (Fusobacterium nucleatum) was 16.0 µg/mL (≈ 72.9 µM) and the “MIC Range” value (Fusobacterium nucleatum) was 1.0~16.0 mg/L. The MIC50 (Veillonella) was 4.0 µg/mL (≈ 18.2 µM), the MIC90 (Veillonella) was 8.0 µg/mL (≈ 36.4 µM) and the “MIC Range” value (Veillonella) was 2.0~8.0 mg/L. The MIC50 (Clostridium) was 2.0 µg/mL (≈ 9.11 µM), the MIC90 (Clostridium) was 2.0 µg/mL (≈ 9.11 µM) and the “MIC Range” value (Clostridium) was 1.0~2.0 mg/L. For the same molecule, the “effect on the coordination and balance (number of falling animals)” value (mice [1]; 160 mg/kg) was “no significant effect”, the “effect on the coordination and balance, compared with the vehicle control group” value (mice [1]; doses of 40 and 80 mg/kg) was “no significant effect” and the “ED50 (half effective dose)” value [2, 6] was 42.0 mg/kg. The “95% CI of ED50” value ([2]; oral gavage twice) was 50.9˜34.6 mg/kg, the “ED50 (half effective dose)” value [3, 6] was 31.0 mg/kg and the “95% CI of ED50” value ([3]; oral gavage twice) was 43.3˜22.2 mg/kg. The LD50 (Kunming mice; intraperitoneal injection) was 1378 mg/kg, the Death rate (Kunming mice; intraperitoneal, 1044 mg/kg) was 0% and the “Probability units (Y)” value (Kunming mice; intraperitoneal, 1044 mg/kg) was 3.27. For the same molecule, the “Number of dead animals” value (Kunming mice; intraperitoneal, 1044 mg/kg) was 0, the Death rate (Kunming mice; intraperitoneal, 1228 mg/kg) was 30% and the “Probability units (Y)” value (Kunming mice; intraperitoneal, 1228 mg/kg) was 4.24. For the same molecule, the “Number of dead animals” value (Kunming mice; intraperitoneal, 1228 mg/kg) was 3, the Death rate (Kunming mice; intraperitoneal, 1445 mg/kg) was 60% and the “Probability units (Y)” value (Kunming mice; intraperitoneal, 1445 mg/kg) was 5.20. The “Number of dead animals” value (Kunming mice; intraperitoneal, 1445 mg/kg) was 6, the Death rate (Kunming mice; intraperitoneal, 1700 mg/kg) was 90% and the “Probability units (Y)” value (Kunming mice; intraperitoneal, 1700 mg/kg) was 6.17. The “Number of dead animals” value (Kunming mice; intraperitoneal, 1700 mg/kg) was 9, the Death rate (Kunming mice; intraperitoneal, 2000 mg/kg) was 100% and the “Probability units (Y)” value (Kunming mice; intraperitoneal, 2000 mg/kg) was 7.13. For the same molecule, the “Number of dead animals” value (Kunming mice; intraperitoneal, 2000 mg/kg) was 10, the LD50 (Kunming mice; intravenous injection) was 332 mg/kg and the Death rate (Kunming mice; intravenous, 243 mg/kg) was 0%. For the same molecule, the “Probability units (Y)” value (Kunming mice; intravenous, 243 mg/kg) was 1.06, the “Number of dead animals” value (Kunming mice; intravenous, 243 mg/kg) was 0 and the Death rate (Kunming mice; intravenous, 270 mg/kg) was 0%. The “Probability units (Y)” value (Kunming mice; intravenous, 270 mg/kg) was 3.04, the “Number of dead animals” value (Kunming mice; intravenous, 270 mg/kg) was 0 and the Death rate (Kunming mice; intravenous, 300 mg/kg) was 20%. The “Probability units (Y)” value (Kunming mice; intravenous, 300 mg/kg) was 3.72, the “Number of dead animals” value (Kunming mice; intravenous, 300 mg/kg) was 2 and the Death rate (Kunming mice; intravenous, 333 mg/kg) was 30%. For the same molecule, the “Probability units (Y)” value (Kunming mice; intravenous, 333 mg/kg) was 5.05, the “Number of dead animals” value (Kunming mice; intravenous, 333 mg/kg) was 3 and the Death rate (Kunming mice; intravenous, 370 mg/kg) was 100%. The “Probability units (Y)” value (Kunming mice; intravenous, 370 mg/kg) was 6.38, the “Number of dead animals” value (Kunming mice; intravenous, 370 mg/kg) was 10 and the Death rate (Kunming mice; oral gavage, 655.4 mg/kg) was 0%. For the same molecule, the “Probability units (Y)” value (Kunming mice; oral gavage, 655.4 mg/kg) was 2.87, the Death rate (Kunming mice; oral gavage, 819.2 mg/kg) was 10% and the “Probability units (Y)” value (Kunming mice; oral gavage, 819.2 mg/kg) was 3.86. The Death rate (Kunming mice; oral gavage, 1024 mg/kg) was 40%, the “Probability units (Y)” value (Kunming mice; oral gavage, 1024 mg/kg) was 4.86 and the “Probability units (Y)” value (Kunming mice; oral gavage, 1280 mg/kg) was 5.86. The Death rate (Kunming mice; oral gavage, 1600 mg/kg) was 100%, the “Number of dead animals” value (Kunming mice; oral gavage, 1600 mg/kg) was 10 and the LD50 (Kunming mice; oral gavage) was 1069 mg/kg. For the same molecule, the “AUC0-t (area under curve)” value [4, 7] was 90940 ± 8330 ng·h/mL, the “Cl (clearance)” value [4, 7] was 1.22 ± 0.13 L/h and the “MRT (mean retention time of drugs)” value [4, 7] was 10.06 ± 1.57 h. For the same molecule, the “Vβ (elimination volume of distribution)” value [4, 7] was 12.23 ± 1.84 L, the “t1/2 (half life)” value ([4]; beagle dogs, individual intravenous dose 13 mg/kg, plasma, HPLC, non-compartmental) was 6.97 ± 1.09 h and the “in vivo transformation of enantiomers between L- and D-ornidazole” value ([4]; dog, in vivo, iv) was “not occurred”. For the same molecule, the “duration of sleeping induced by sodium thiopental, compared with the vehicle control group” value (mice [5]; 40 mg/kg intravenous) was “did not significantly extend”, the “sleep latency induced by sodium thiopental, compared with the vehicle control group” value (mice [5]; 40 mg/kg intravenous) was “no significant reduction” and the “duration of sleeping induced by sodium thiopental, compared with the vehicle control group” value (mice [5]; 80 mg/kg intravenous) was “significantly extended”. The “sleep latency induced by sodium thiopental, compared with the vehicle control group” value (mice [5]; 80 mg/kg intravenous) was “no significant reduction”.
